Data published in PubChem BioAssay AID248 (DTP/NCI, 2004).
“And” between values parts separate entries of the source, which are not always exact repeats. Equal entries are not always repeated. Inconclusive results and toxic doses are left out. Rule as the data show it: active = T/C of 150% or more; inactive = T/C below 125%.

Tested on: L1210 leukemia ip in BDF1 mice, survival T/C
Assay: NCI In Vivo Anticancer Drug Screen. Data for tumor model L1210 Leukemia (intraperitoneal) in B6D2F1 (BDF1) mice
Settings: endpoint: mean survival time, higher = longer survival
Summary of the method: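 Transplanted-tumor mice were given test agent; controls received vehicle only. Survival readings from the two groups were divided (treated over control).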

[1] = dose: 100.0 mg/kg/injection, schedule: Q01DX009 (ip), vehicle: saline with Tween-80
[2] = dose: 100.0 mg/kg/injection, schedule: Q04DX002 (ip), vehicle: saline with Tween-80
[3] = dose: 100.0 mg/kg/injection, schedule: Q04DX003 (ip), vehicle: saline with Tween-80
[4] = dose: 200.0 mg/kg/injection, schedule: Q01DX009 (ip), vehicle: saline with Tween-80
[5] = dose: 200.0 mg/kg/injection, schedule: Q04DX002 (ip), vehicle: saline with Tween-80
[6] = dose: 200.0 mg/kg/injection, schedule: Q04DX003 (ip), vehicle: saline with Tween-80
[7] = dose: 400.0 mg/kg/injection, schedule: Q04DX002 (ip), vehicle: saline with Tween-80
[8] = dose: 400.0 mg/kg/injection, schedule: Q04DX003 (ip), vehicle: saline with Tween-80
[9] = dose: 25.0 mg/kg/injection, schedule: Q04DX003 (ip), vehicle: Klucel (hydroxypropylcellulose) (HPC)
[10] = dose: 50.0 mg/kg/injection, schedule: Q04DX003 (ip), vehicle: Klucel (hydroxypropylcellulose) (HPC)
[11] = dose: 100.0 mg/kg/injection, schedule: Q04DX003 (ip), vehicle: Klucel (hydroxypropylcellulose) (HPC)
[12] = dose: 200.0 mg/kg/injection, schedule: Q04DX003 (ip), vehicle: Klucel (hydroxypropylcellulose) (HPC)
[13] = dose: 400.0 mg/kg/injection, schedule: Q04DX003 (ip), vehicle: Klucel (hydroxypropylcellulose) (HPC)
[14] = dose: 100.0 mg/kg/injection, schedule: Q01DX001 (ip), vehicle: saline
[15] = dose: 200.0 mg/kg/injection, schedule: Q01DX001 (ip), vehicle: saline
[16] = dose: 400.0 mg/kg/injection, schedule: Q01DX001 (ip), vehicle: saline
[17] = dose: 100.0 mg/kg/injection, schedule: Q04DX002 (ip), vehicle: Klucel (hydroxypropylcellulose) (HPC)
[18] = dose: 200.0 mg/kg/injection, schedule: Q04DX002 (ip), vehicle: Klucel (hydroxypropylcellulose) (HPC)

Measured: T/C

O=C(Nc1ccc(I)cc1)Nc1ccc(Cl)cc1[N+](=O)[O-]
inactive: dose: 100.0 mg/kg/injection, schedule: Q01DX001 (ip), vehicle: saline with Tween-80 96 % of control | [1] 97 % of control and 92 % of control | [2] 98 % of control and 91 % of control | [3] 93 % of control | dose: 200.0 mg/kg/injection, schedule: Q01DX001 (ip), vehicle: saline with Tween-80 90 % of control | [4] 87 % of control | [5] 94 % of control and 98 % of control | [6] 97 % of control | dose: 400.0 mg/kg/injection, schedule: Q01DX001 (ip), vehicle: saline with Tween-80 87 % of control | [7] 93 % of control and 91 % of control | [8] 95 % of control

CCCCCCCCCCCCCCCCCCS(=O)(=O)CCCl
inactive: [9] 107 % of control | [10] 100 % of control | [11] 96 % of control | [12] 93 % of control | [13] 91 % of control

CCCCN(CCCC)P(=S)(OCC)OCC
inactive: [3] 100 % of control | [6] 102 % of control | [8] 104 % of control

Brc1ccc(S/C=C/c2ccccc2)cc1
inactive: [14] 112 % of control | [15] 102 % of control | [16] 101 % of control

Cc1ccc(Nc2cc(N)nc(N)n2)cc1C
inactive: dose: 25.0 mg/kg/injection, schedule: Q01DX Z (ip), vehicle: methylcellulose (MC) 97 % of control | dose: 50.0 mg/kg/injection, schedule: Q01DX Z (ip), vehicle: methylcellulose (MC) 114 % of control

N#CSCc1ccccc1Cl
inactive: dose: 6.25 mg/kg/injection, schedule: Q04DX003 (ip), vehicle: Klucel (hydroxypropylcellulose) (HPC) 104 % of control | dose: 12.5 mg/kg/injection, schedule: Q04DX003 (ip), vehicle: Klucel (hydroxypropylcellulose) (HPC) 104 % of control | [9] 93 % of control | [10] 96 % of control

Cc1cc(Cl)c(Cl)cc1NC(=O)C(Br)C(Br)c1ccccc1 (stereo unspecified)
inactive: dose: 100.0 mg/kg/injection, schedule: Q01DX009 (ip), vehicle: other 92 % of control | dose: 200.0 mg/kg/injection, schedule: Q01DX009 (ip), vehicle: other 92 % of control | dose: 400.0 mg/kg/injection, schedule: Q01DX009 (ip), vehicle: other 92 % of control

O=C(OCS(=O)c1ccccc1)c1ccccc1 (stereo unspecified)
inactive: [11] 94 % of control | [12] 104 % of control

CCOC(=O)C(=Cc1ccccc1)C(=O)OCC
inactive: [14] 96 % of control | [17] 98 % of control | [15] 100 % of control | [18] 95 % of control | [16] 100 % of control | dose: 400.0 mg/kg/injection, schedule: Q04DX002 (ip), vehicle: Klucel (hydroxypropylcellulose) (HPC) 102 % of control

Cc1nc2c(Cl)cc(Cl)cc2s1
inactive: dose: 100.0 mg/kg/injection, schedule: Q01DX001 (ip), vehicle: acetone 100 % of control | dose: 100.0 mg/kg/injection, schedule: Q04DX003 (ip), vehicle: saline 95 % of control | dose: 200.0 mg/kg/injection, schedule: Q01DX001 (ip), vehicle: acetone 106 % of control | dose: 200.0 mg/kg/injection, schedule: Q04DX003 (ip), vehicle: saline 90 % of control | dose: 400.0 mg/kg/injection, schedule: Q01DX001 (ip), vehicle: acetone 102 % of control | dose: 400.0 mg/kg/injection, schedule: Q04DX003 (ip), vehicle: saline 92 % of control

C=CCc1ccc2c(c1)OC(CO)CO2 (stereo unspecified) (tested in a mixture with another compound)
inactive: [14] 90 % of control | [15] 93 % of control | [16] 93 % of control

COc1ccccc1NC(=S)Nc1ccccc1OC
inactive: dose: 100.0 mg/kg/injection, schedule: Q01DX009 (ip), vehicle: Klucel (hydroxypropylcellulose) (HPC) 102 % of control | dose: 100.0 mg/kg/injection, schedule: Q01DX009 (ip), vehicle: saline sonified 97 % of control | [1] 90 % of control | [11] 93 % of control | dose: 100.0 mg/kg/injection, schedule: Q04DX003 (ip), vehicle: saline sonified 110 % of control | [3] 92 % of control | dose: 200.0 mg/kg/injection, schedule: Q01DX009 (ip), vehicle: Klucel (hydroxypropylcellulose) (HPC) 94 % of control | dose: 200.0 mg/kg/injection, schedule: Q01DX009 (ip), vehicle: saline sonified 97 % of control | [4] 101 % of control | [12] 98 % of control | dose: 200.0 mg/kg/injection, schedule: Q04DX003 (ip), vehicle: saline sonified 95 % of control | [6] 96 % of control | dose: 400.0 mg/kg/injection, schedule: Q01DX009 (ip), vehicle: saline sonified 86 % of control | dose: 400.0 mg/kg/injection, schedule: Q01DX009 (ip), vehicle: saline with Tween-80 93 % of control | [13] 96 % of control | dose: 400.0 mg/kg/injection, schedule: Q04DX003 (ip), vehicle: saline sonified 116 % of control | [8] 92 % of control

CN(C)Nc1ncnc2nc[nH]c12
inactive: dose: 12.5 mg/kg/injection, schedule: Q01DX Z (ip), vehicle: carboxymethylcellulose (CMC) 98 % of control | dose: 25.0 mg/kg/injection, schedule: Q01DX Z (ip), vehicle: carboxymethylcellulose (CMC) 104 % of control | dose: 50.0 mg/kg/injection, schedule: Q01DX Z (ip), vehicle: carboxymethylcellulose (CMC) 106 % of control and 115 % of control | dose: 75.0 mg/kg/injection, schedule: Q01DX001 (ip), vehicle: carboxymethylcellulose (CMC) 102 % of control | dose: 100.0 mg/kg/injection, schedule: Q01DX Z (ip), vehicle: carboxymethylcellulose (CMC) 114 % of control and 118 % of control | dose: 150.0 mg/kg/injection, schedule: Q01DX001 (ip), vehicle: carboxymethylcellulose (CMC) 102 % of control | dose: 300.0 mg/kg/injection, schedule: Q01DX001 (ip), vehicle: carboxymethylcellulose (CMC) 110 % of control

NCC1C2CC3CC(C2)CC1C3 (stereo unspecified)
inactive: dose: 12.5 mg/kg/injection, schedule: Q01DX001 (ip), vehicle: saline 106 % of control | dose: 25.0 mg/kg/injection, schedule: Q01DX001 (ip), vehicle: saline 97 % of control | dose: 50.0 mg/kg/injection, schedule: Q01DX001 (ip), vehicle: saline 93 % of control | [17] 98 % of control | [18] 96 % of control

CC(=O)OC1CCSc2ccccc21 (stereo unspecified)
inactive: dose: 50.0 mg/kg/injection, schedule: Q01DX001 (ip), vehicle: carboxymethylcellulose (CMC) 95 % of control | dose: 100.0 mg/kg/injection, schedule: Q01DX001 (ip), vehicle: carboxymethylcellulose (CMC) 93 % of control | dose: 200.0 mg/kg/injection, schedule: Q01DX001 (ip), vehicle: carboxymethylcellulose (CMC) 104 % of control | dose: 400.0 mg/kg/injection, schedule: Q01DX001 (ip), vehicle: carboxymethylcellulose (CMC) 90 % of control

CCOc1ccccc1/C=C1\C=Nc2ccccc21
inactive: dose: 50.0 mg/kg/injection, schedule: Q01DX009 (ip), vehicle: carboxymethylcellulose (CMC) 92 % of control and 101 % of control | dose: 50.0 mg/kg/injection, schedule: Q04DX003 (ip), vehicle: carboxymethylcellulose (CMC) 96 % of control | dose: 100.0 mg/kg/injection, schedule: Q01DX009 (ip), vehicle: carboxymethylcellulose (CMC) 92 % of control and 93 % of control | dose: 100.0 mg/kg/injection, schedule: Q04DX002 (ip), vehicle: carboxymethylcellulose (CMC) 96 % of control and 99 % of control | dose: 100.0 mg/kg/injection, schedule: Q04DX003 (ip), vehicle: carboxymethylcellulose (CMC) 98 % of control | dose: 200.0 mg/kg/injection, schedule: Q01DX009 (ip), vehicle: carboxymethylcellulose (CMC) 89 % of control and 90 % of control | dose: 200.0 mg/kg/injection, schedule: Q04DX002 (ip), vehicle: carboxymethylcellulose (CMC) 89 % of control and 91 % of control | dose: 200.0 mg/kg/injection, schedule: Q04DX003 (ip), vehicle: carboxymethylcellulose (CMC) 100 % of control | dose: 400.0 mg/kg/injection, schedule: Q04DX002 (ip), vehicle: carboxymethylcellulose (CMC) 89 % of control

O=C(O)CCNC(=S)Nc1ccc(S(=O)(=O)c2ccc(NC(=S)NCCC(=O)O)cc2)cc1
inactive: [14] 104 % of control | [15] 98 % of control | [16] 102 % of control

CC(C)(C)NC(=O)Nc1cccc2c(O)cccc12
inactive: [2] 95 % of control | [5] 95 % of control | [7] 98 % of control
